From PubChem BioAssay AID1745844 (Carcinogenic Potency Database (CPDB), 2022)

Test system: rodent lifetime carcinogenesis bioassay, tumor incidence TD50
Experiment: carcinogenic potency in animals, long-term in vivo studies, CPDB compilation (AID 1745844)
Details: rat

With `C=CCl` the TD50 (strain Charles River CD (Sprague-Dawley), females, inhaled, site: liver, lesion: hemangiosarcoma, dosed 26 weeks, study length 78 weeks) was 115 mg/kg/day, the TD50 (strain Charles River CD (Sprague-Dawley), females, inhaled, site: liver, lesion: hemangiosarcoma, dosed 43 weeks, study length 95 weeks) was 69.5 mg/kg/day and the TD50 (strain Charles River CD (Sprague-Dawley), females, inhaled, site: liver, lesion: hepatocellular carcinoma, dosed 43 weeks, study length 95 weeks) was 225 mg/kg/day. The TD50 (strain Charles River CD (Sprague-Dawley), females, inhaled, site: liver, lesion: neoplastic nodule, dosed 43 weeks, study length 95 weeks) was 315 mg/kg/day, the TD50 (strain Charles River CD (Sprague-Dawley), males, inhaled, site: liver, lesion: hemangiosarcoma, dosed 43 weeks, study length 95 weeks) was 103 mg/kg/day and the TD50 (strain Charles River CD (Sprague-Dawley), males, inhaled, site: liver, lesion: hepatocellular carcinoma, dosed 26 weeks, study length 78 weeks) was 52.9 mg/kg/day. The TD50 (strain Charles River CD (Sprague-Dawley), males, inhaled, site: liver, lesion: hepatocellular carcinoma, dosed 43 weeks, study length 95 weeks) was 265 mg/kg/day, the TD50 (strain Charles River CD (Sprague-Dawley), males, inhaled, site: liver, lesion: neoplastic nodule, dosed 26 weeks, study length 78 weeks) was 11.5 mg/kg/day and the TD50 (strain Charles River CD (Sprague-Dawley), males, inhaled, site: liver, lesion: neoplastic nodule, dosed 43 weeks, study length 95 weeks) was 34.6 mg/kg/day. The TD50 (strain Fischer 344, females, inhaled, site: all sites, lesion: hemangiosarcoma, dosed 26 weeks, study length 104 weeks) was 91.2 mg/kg/day, the TD50 (strain Fischer 344, females, inhaled, site: all sites, lesion: hemangiosarcoma, dosed 52 weeks, study length 104 weeks) was 29.5 mg/kg/day and the TD50 (strain Fischer 344, females, inhaled, site: all sites, lesion: hemangiosarcoma, dosed 78 weeks, study length 104 weeks) was 32.8 mg/kg/day. The TD50 (strain Fischer 344, females, inhaled, site: all sites, lesion: hemangiosarcoma, dosed 104 weeks, study length 104 weeks) was 23.6 mg/kg/day, the TD50 (strain Fischer 344, females, inhaled, site: liver, lesion: hepatocellular carcinoma, dosed 26 weeks, study length 104 weeks) was 103 mg/kg/day and the TD50 (strain Fischer 344, females, inhaled, site: liver, lesion: hepatocellular carcinoma, dosed 52 weeks, study length 104 weeks) was 101 mg/kg/day. The TD50 (strain Fischer 344, females, inhaled, site: liver, lesion: hepatocellular carcinoma, dosed 78 weeks, study length 104 weeks) was 65.2 mg/kg/day, the TD50 (strain Fischer 344, females, inhaled, site: liver, lesion: hepatocellular carcinoma, dosed 104 weeks, study length 104 weeks) was 77.2 mg/kg/day and the TD50 (strain Fischer 344, females, inhaled, site: liver, lesion: neoplastic nodule, dosed 26 weeks, study length 104 weeks) was 17.6 mg/kg/day. The TD50 (strain Fischer 344, females, inhaled, site: liver, lesion: neoplastic nodule, dosed 52 weeks, study length 104 weeks) was 16.2 mg/kg/day, the TD50 (strain Fischer 344, females, inhaled, site: liver, lesion: neoplastic nodule, dosed 78 weeks, study length 104 weeks) was 96.3 mg/kg/day and the TD50 (strain Fischer 344, females, inhaled, site: liver, lesion: neoplastic nodule, dosed 104 weeks, study length 104 weeks) was 166 mg/kg/day. For the same molecule, the TD50 (strain Fischer 344, females, inhaled, site: mammary gland, lesion: adenocarcinoma, dosed 52 weeks, study length 104 weeks) was 38 mg/kg/day, the TD50 (strain Fischer 344, females, inhaled, site: mammary gland, lesion: adenocarcinoma, dosed 78 weeks, study length 104 weeks) was 74.2 mg/kg/day and the TD50 (strain Fischer 344, females, inhaled, site: mammary gland, lesion: adenocarcinoma, dosed 104 weeks, study length 104 weeks) was 264 mg/kg/day. For the same molecule, the TD50 (strain Fischer 344, females, inhaled, site: mammary gland, lesion: fibroadenoma, dosed 26 weeks, study length 104 weeks) was 15.1 mg/kg/day, the TD50 (strain Fischer 344, females, inhaled, site: mammary gland, lesion: fibroadenoma, dosed 52 weeks, study length 104 weeks) was 14.6 mg/kg/day and the TD50 (strain Fischer 344, females, inhaled, site: mammary gland, lesion: fibroadenoma, dosed 78 weeks, study length 104 weeks) was 29.7 mg/kg/day. For the same molecule, the TD50 (strain Fischer 344, females, inhaled, site: mammary gland, lesion: fibroadenoma, dosed 104 weeks, study length 104 weeks) was 32.9 mg/kg/day, the TD50 (strain Sprague-Dawley, females, by gavage, site: Zymbal's gland, lesion: carcinoma, dosed 59 weeks, study length 129 weeks) was 5.05 mg/kg/day and the TD50 (strain Sprague-Dawley, females, by gavage, site: any site (literature study), lesion: several types, types named in the paper, dosed 52 weeks, study length 127 weeks) was 35.2 mg/kg/day. It also gave a TD50 (strain Sprague-Dawley, females, by gavage, site: any site (literature study), lesion: several types, types named in the paper, dosed 59 weeks, study length 129 weeks) of 0.878 mg/kg/day, a TD50 (strain Sprague-Dawley, females, by gavage, site: extrahepatic tissue, lesion: angioma, dosed 52 weeks, study length 127 weeks) of 408 mg/kg/day and a TD50 (strain Sprague-Dawley, females, by gavage, site: extrahepatic tissue, lesion: angiosarcoma, dosed 52 weeks, study length 127 weeks) of 454 mg/kg/day. For the same molecule, the TD50 (strain Sprague-Dawley, females, by gavage, site: extrahepatic tissue, lesion: angiosarcoma, dosed 59 weeks, study length 129 weeks) was 10.9 mg/kg/day, the TD50 (strain Sprague-Dawley, females, by gavage, site: kidney, lesion: nephroblastoma, dosed 52 weeks, study length 127 weeks) was 182 mg/kg/day and the TD50 (strain Sprague-Dawley, females, by gavage, site: liver, lesion: angioma, dosed 52 weeks, study length 127 weeks) was 207 mg/kg/day. It also gave a TD50 (strain Sprague-Dawley, females, by gavage, site: liver, lesion: angiosarcoma, dosed 52 weeks, study length 127 weeks) of 38.6 mg/kg/day, a TD50 (strain Sprague-Dawley, females, by gavage, site: liver, lesion: angiosarcoma, dosed 59 weeks, study length 129 weeks) of 3.58 mg/kg/day and a TD50 (strain Sprague-Dawley, females, inhaled, site: Zymbal's gland, lesion: carcinoma, dosed 25 weeks, study length 127 weeks) of 1200 mg/kg/day. For the same molecule, the TD50 (strain Sprague-Dawley, females, inhaled, site: Zymbal's gland, lesion: carcinoma, dosed 25 weeks, study length 135 weeks) was 569 mg/kg/day, the TD50 (strain Sprague-Dawley, females, inhaled, site: Zymbal's gland, lesion: carcinoma, dosed 52 weeks, study length 111 weeks) was 67.9 mg/kg/day and the TD50 (strain Sprague-Dawley, females, inhaled, site: Zymbal's gland, lesion: carcinoma, dosed 52 weeks, study length 139 weeks) was 1070 mg/kg/day. For the same molecule, the TD50 (strain Sprague-Dawley, females, inhaled, site: Zymbal's gland, lesion: carcinoma, dosed 71 weeks, study length 71 weeks) was 1190 mg/kg/day, the TD50 (strain Sprague-Dawley, females, inhaled, site: any site (literature study), lesion: several types, types named in the paper, dosed 25 weeks, study length 127 weeks) was 309 mg/kg/day and the TD50 (strain Sprague-Dawley, females, inhaled, site: any site (literature study), lesion: several types, types named in the paper, dosed 25 weeks, study length 135 weeks) was 51.5 mg/kg/day. For the same molecule, the TD50 (strain Sprague-Dawley, females, inhaled, site: any site (literature study), lesion: several types, types named in the paper, dosed 52 weeks, study length 111 weeks) was 2.12 mg/kg/day, the TD50 (strain Sprague-Dawley, females, inhaled, site: any site (literature study), lesion: several types, types named in the paper, dosed 52 weeks, study length 139 weeks) was 37.4 mg/kg/day and the TD50 (strain Sprague-Dawley, females, inhaled, site: any site (literature study), lesion: several types, types named in the paper, dosed 71 weeks, study length 71 weeks) was 70.5 mg/kg/day. The TD50 (strain Sprague-Dawley, females, inhaled, site: brain, lesion: neuroblastoma, dosed 25 weeks, study length 135 weeks) was 3630 mg/kg/day, the TD50 (strain Sprague-Dawley, females, inhaled, site: brain, lesion: neuroblastoma, dosed 52 weeks, study length 131 weeks) was 4850 mg/kg/day and the TD50 (strain Sprague-Dawley, females, inhaled, site: brain, lesion: neuroblastoma, dosed 71 weeks, study length 71 weeks) was 184 mg/kg/day. For the same molecule, the TD50 (strain Sprague-Dawley, females, inhaled, site: extrahepatic tissue, lesion: angioma, dosed 25 weeks, study length 135 weeks) was 2990 mg/kg/day.
